From patent US7666354B2, “Composition for sterilization comprising ω-alkoxyperoxycarboxylic acid” (FUJIFILM Corporation, priority 2004, dated 2010)
Like-named read-outs stand apart in the source and are kept apart here.

Legend:
[1] = system: spores; details: recently reported; cited from earlier work
[2] = system: Spores of Bacillus subtilis IFO3134; experiment: Evaluation of antimicrobial activity against spores (liquid culture and agar culture after a given reaction time); type: cell-based; details: for colony formation, 15 sec / colony formation, 1 min / colony formation, 5 min: Agar culture; for colony formation, 15 sec / bacterial proliferation, 15 sec: reaction time 15 sec; for colony formation, 1 min / bacterial proliferation, 1 min: reaction time 1 min; for colony formation, 5 min / bacterial proliferation, 5 min: reaction time 5 min; for bacterial proliferation, 15 sec / bacterial proliferation, 1 min / bacterial proliferation, 5 min: Liquid culture
Procedure: Antimicrobial activity of the composition of the present invention against spores was evaluated.
Spores of Bacillus subtilis IFO3134 was prepared based on the preparation method of a spores stock solution described in Notification from Ministry of Health, Labour and Welfare, “Ei-nyu(Milk Hygiene)” No. 10, Jan. 29, 1996 (Heisei 8). […] The bacteria were suspended in sterilized water (3 ml), and the suspension was heated at 65° C. for 30 minutes under shaking at 160 rpm to kill trophozoites. Resulting suspension was centrifuged at 3000 rpm, and the supernatant was discarded. Sterilized water (3 ml) was added to the residue to obtain a stock solution of spores. A solution of 1.1×10^9 cfu/mL was prepared using the stock solution and subjected to the following evaluations of antimicrobial activity.
Evaluation of antimicrobial activity was conducted according to the method of Sakagami et al. (J. Antibact. Antifung. Agents., Vol. 26, 605-601, 1998). Specifically, an aqueous solution (225 μl) of each sample which was filtered with 0.2 μm paper filter was added with spores suspension (25 μl) prepared by the above described method. The mixture (concentration of bacteria: 1.1×10^8 cfu/mL) was reacted for a given period of time. From the reaction solution, 2 μL sample was corrected and added to 2 ml of SCDLP culture medium (Nissui Pharmaceutical Co., Ltd.). The medium was cultured at 37° C. under shaking at 160 rpm for 48 hours, and the presence of bacterial growth was examined. At the same time, the reaction solution (25 μL) was added to a mixture solution (225 μL) of 0.1N sodium thiosulfate and 1% catalase to inactivate a peroxycarboxylic acid and hydrogen peroxide. Resulting solution (100 μL) was inoculated to SCDLP culture agar medium (Nissui Pharmaceutical Co., Ltd., 25 mL/petri dish). The medium was cultured at 37° C. for 48 hours, and examined visually for colony formation.
Each solution prepared in Example 1, 2, 3-c, 3-f, and 3-j was diluted with distilled water for injection (Hikari pharmaceutical company) so as to obtain a solution of peroxycarboxylic acid at a concentration of 40 mM, which was used as composition 1, 2, 3, 24, and 28. The compositions were evaluated for their antimicrobial activity using the above described method. Aqueous hydrogen peroxide which contains hydrogen peroxide at a higher concentration than the hydrogen peroxide concentration of the above diluted solutions was separately evaluated in a similar manner, and results are also shown in Table 1.

[3] = Stability Evaluation 2: pH dependency of peroxycarboxylic acid concentration; type: physicochemical; details: 80 mM solution, FIG. 1
Procedure: (§1) A aqueous composition of the peroxycarboxylic acid which was obtained in the above described Synthesis of compound 3 (1.6 M, 100 ml) was diluted by addition of water (50 ml), and the mixture was left at 25° C. for 7 days. Quantification was conducted by potassium iodide/sodium thiosulfate titration as described in Example 1.
The aqueous composition was diluted with water to adjust the peroxycarboxylic acid concentration at 80 mM. Three solutions of pH 1.7, 3.0, and 5.0 were prepared, and peroxycarboxylic acid concentration was quantified by potassium iodide/sodium thiosulfate titration as described in Example 1 at a constant time intervals. The pH was adjusted by addition of dipotassium hydrogen phosphate. Assuming that peroxycarboxylic acid concentration of 80 mM is 100%, changes in peroxycarboxylic acid concentration are shown in FIG. 1.

[4] = Judgment whether the composition meets the criteria of the fifth class of hazardous material in the Fire Defense Law (thermal analysis, pressure container test); details: aqueous composition: Compound 3 7% w/w, hydrogen peroxide 13% w/w, 3-propoxypropionic acid 32% w/w, water 48% w/w
Procedure: as §1, with “mixed with” for “diluted by addition of”, “ml) for dilution,” for “ml),”, “14 days. The solution was further kept at 4° C. for 10” for “7”
The above aqueous composition was subjected to judgment whether or not the composition meets the criteria of the fifth class of hazardous material in the Fire Defense Law.

[5] = system: Spores of Bacillus subtilis IFO3134; experiment: Evaluation of antimicrobial activity against spores (liquid culture and agar culture after a given reaction time); type: cell-based; details: Table 2, Acecide, 40 mM peracetic acid
[6] = Stability Evaluation 1: peracid concentration after mixing carboxylic acid and 50% aqueous hydrogen peroxide (potassium iodide/sodium thiosulfate titration); type: physicochemical; details: for peracid concentration in composition, 3 days after mixing: day 3; for peracid concentration in composition, 6 days after mixing: day 6; for peracid concentration in composition, 22 days after mixing: day 22
Excerpt: A carboxylic acid (30 mmol) and 50% aqueous hydrogen peroxide (45 mmol) were mixed, and concentration of generated peracid was quantified by potassium iodide/sodium thiosulfate titration as described in Example 1 at a constant time interval. As the carboxylic acid, 3-methoxypropionic acid and 3-ethoxypropionic acid were used. As a control for comparison, methoxyacetic acid was used.
Numbers in Table 3 indicates peracid concentration (mM) in compositions.

[7] = cited from earlier work
[8] = Table 2, Acecide, 40 mM peracetic acid
[9] = carboxylic acid 30 mmol + 50% aqueous hydrogen peroxide 45 mmol

SMILES: O=CCCCC=O [glutaraldehyde]
- sterilizing effect to spores [1]: weak sterilizing effect to spores

SMILES: O=C(CCOCCO)OO [reference compound]
- antimicrobial activity compared with Composition 1, Composition 2 ([2]; evaluated in a similar manner to Example 4): lower than that of Composition 1, Composition 2 or the like

SMILES: CCOCCCC(=O)OO [Compound 24]
- colony formation, 15 sec ([2]; peroxycarboxylic acid 40 mM): +
- colony formation, 1 min ([2]; peroxycarboxylic acid 40 mM): +
- colony formation, 5 min ([2]; peroxycarboxylic acid 40 mM): −
- bacterial proliferation, 15 sec ([2]; peroxycarboxylic acid 40 mM): +
- bacterial proliferation, 1 min ([2]; peroxycarboxylic acid 40 mM): +
- bacterial proliferation, 5 min ([2]; peroxycarboxylic acid 40 mM): −

SMILES: CCCOCCC(=O)OO [Compound 3, peroxy-3-propoxypropionic acid]
- colony formation, 15 sec ([2]; peroxycarboxylic acid 40 mM): +
- colony formation, 1 min ([2]; peroxycarboxylic acid 40 mM): +
- bacterial proliferation, 15 sec ([2]; peroxycarboxylic acid 40 mM): +
- bacterial proliferation, 1 min ([2]; peroxycarboxylic acid 40 mM): +
- bacterial proliferation, 5 min ([2]; peroxycarboxylic acid 40 mM): −
- change in peroxycarboxylic acid concentration (storage stability), pH lower than 2 ([3]; pH 1.7): a decrease in peroxycarboxylic acid concentration was faster
- storage stability, pH 3.0 ([3]; pH 3.0): significantly high storage stability
- change in peroxycarboxylic acid concentration (storage stability), pH 5 or higher ([3]; pH 5.0): a decrease in peroxycarboxylic acid concentration was faster
- classification as fifth class of hazardous material in the Fire Defense Law [4]: did not classified in the fifth class of hazardous material
- pressure container test result [4]: rank 3
- thermal analysis result [4]: no hazardous

SMILES: O=C(CCOCCCl)OO [Compound 28]
- colony formation, 15 sec ([2]; peroxycarboxylic acid 40 mM): +
- colony formation, 1 min ([2]; peroxycarboxylic acid 40 mM): +
- colony formation, 5 min ([2]; peroxycarboxylic acid 40 mM): −
- bacterial proliferation, 15 sec ([2]; peroxycarboxylic acid 40 mM): +
- bacterial proliferation, 1 min ([2]; peroxycarboxylic acid 40 mM): +
- bacterial proliferation, 5 min ([2]; peroxycarboxylic acid 40 mM): −

SMILES: CC(=O)OO [peracetic acid]
- colony formation, 15 sec [2, 8]: +
- bacterial proliferation, 15 sec [2, 8]: +
- colony formation, 1 min ([5]; Agar culture, reaction time 1 min): +
- colony formation, 5 min ([5]; Agar culture, reaction time 5 min): −
- bacterial proliferation, 1 min ([5]; Liquid culture, reaction time 1 min): +
- bacterial proliferation, 5 min ([5]; Liquid culture, reaction time 5 min): −

SMILES: OO [Hydrogen peroxide, reference compound]
- colony formation, 15 sec ([2]; hydrogen peroxide 2000 mM): +
- colony formation, 1 min ([2]; hydrogen peroxide 2000 mM): +
- colony formation, 5 min ([2]; hydrogen peroxide 2000 mM): +
- bacterial proliferation, 15 sec ([2]; hydrogen peroxide 2000 mM): +
- bacterial proliferation, 1 min ([2]; hydrogen peroxide 2000 mM): +
- bacterial proliferation, 5 min ([2]; hydrogen peroxide 2000 mM): +

SMILES: COCC(=O)OO [peroxy-methoxyacetic acid, reference compound]
- stability: change of peracid concentration with passage of time (in words) [6]: unstable
- peracid concentration in composition, 3 days after mixing [6, 9]: 530 mM
- peracid concentration in composition, 6 days after mixing [6, 9]: 540 mM
- peracid concentration in composition, 10 days after mixing ([6]; carboxylic acid 30 mmol + 50% aqueous hydrogen peroxide 45 mmol, day 10): 380 mM
- peracid concentration in composition, 14 days after mixing ([6]; carboxylic acid 30 mmol + 50% aqueous hydrogen peroxide 45 mmol, day 14): 340 mM
- peracid concentration in composition, 24 days after mixing ([6]; carboxylic acid 30 mmol + 50% aqueous hydrogen peroxide 45 mmol, day 24): 210 mM
- antibacterial effect compared with peracetic acid ([7]; J. Molecular Catalysis B: Enzymatic, 19-20, pp. 499-505 (2002)): weaker antibacterial effect than that of peracetic acid

SMILES: CCC(=O)OO [peroxypropionic acid]
- sterilizing action ([7]; J. Hyg. Epid. Microbiol. Immun., 9, pp. 220-226 (1965)): effective sterilizing action

SMILES: CCOCCC(=O)OO [Compound 2, 3-ethoxyperoxypropionic acid]
- colony formation, 15 sec ([2]; peroxycarboxylic acid 40 mM): +
- colony formation, 1 min ([2]; peroxycarboxylic acid 40 mM): +
- colony formation, 5 min ([2]; peroxycarboxylic acid 40 mM): −
- bacterial proliferation, 15 sec ([2]; peroxycarboxylic acid 40 mM): +
- bacterial proliferation, 1 min ([2]; peroxycarboxylic acid 40 mM): +
- bacterial proliferation, 5 min ([2]; peroxycarboxylic acid 40 mM): −
- stability: change of peracid concentration with passage of time (in words) [6]: any decrease in peracid amount was not observed
- peracid concentration in composition, 3 days after mixing [6, 9]: 160 mM
- peracid concentration in composition, 6 days after mixing [6, 9]: 310 mM
- peracid concentration in composition, 22 days after mixing [6, 9]: 700 mM

SMILES: COCCC(=O)OO [Compound 1, 3-methoxyperoxypropionic acid]
- colony formation, 15 sec ([2]; peroxycarboxylic acid 40 mM): +
- colony formation, 1 min ([2]; peroxycarboxylic acid 40 mM): +
- colony formation, 5 min ([2]; peroxycarboxylic acid 40 mM): −
- bacterial proliferation, 15 sec ([2]; peroxycarboxylic acid 40 mM): +
- bacterial proliferation, 1 min ([2]; peroxycarboxylic acid 40 mM): +
- bacterial proliferation, 5 min ([2]; peroxycarboxylic acid 40 mM): −
- peracid concentration in composition, 3 days after mixing [6, 9]: 160 mM
- peracid concentration in composition, 5 days after mixing ([6]; carboxylic acid 30 mmol + 50% aqueous hydrogen peroxide 45 mmol, day 5): 250 mM
- peracid concentration in composition, 22 days after mixing [6, 9]: 650 mM
- stability: change of peracid concentration with passage of time (in words) ([6]; summary of Table 3): any decrease in peracid amount was not observed
